Legend:
[1] = tested on: Oxotremorine-Induced Effects; assay: Anticholinergic activity: antagonism of oxotremorine-induced effects (temperature, tremor, salivation, lacrimation); type: in vivo, mice; settings: for Lacrimation (L) score / Salivation (S) score / Tremor (T) score: 2=strong, 1=weak, 0=none
Experimental: Anticholinergic activity was examined in vivo by determining the ability of the compound to antagonize oxotremorine-induced effects according to the method described by P. S. J. Spencer, Life Sci., 5, 1015 (1965). […] Rectal temperature was measured with a YSI telethermometer 402 physiological probe before administration of test compounds and oxotremorine and at 15 and 30 min after oxotremorine. At the same time the degree of tremor, salivation and lacrimation was scored as follows: 2=strong; 1=weak; 0=none.

[2] = tested on: Indomethacin-Induced Ulcer Formation; assay: Indomethacin-induced ulcer formation; type: in vivo, rat (female albino Sprague-Dawley); settings: for Ulcers Formed: mean ± S.E.; for ED50: Rattus norvegicus, indomethacin-induced ulcers, oral, doses in mg/kg
Experimental: The method utilized for the production and evaluation of indomethacin-induced ulcer formation was essentially as described by Y. H. Lee et al., Arch. Int. Pharmacodyn. […] Indomethacin (20 mg/kg, i.p.) was given, the animals sacrificed by cervical dislocation 5 hr later and the number of ulcers present in the glandular portion of the stomach determined. The test compound was administered orally (0.2 ml) 1 hr before the indomethacin. The vehicle employed for the administrations was water containing Tween 80 (1 drop per 7 ml). There were 12-32 animals per group.

[3] = tested on: Cold-Restraint-Induced Ulcer Formation; assay: Cold-restraint-induced ulcer formation; type: in vivo, rat (male albino Sprague-Dawley); settings: for Ulcers Formed: mean ± S.E.; for ED50: Rattus norvegicus, cold-restraint ulcers, oral, doses in mg/kg
Description: Int. Pharmacodyn. […] Exp. Biol. Med., 113, 998 (1963) as modified by E. C. Senay and R. J. Levine Proc. Soc. Exp. Biol. Med., 124, 1221 (1967) when administered orally or parenterally (see Examples 3 and 4).
To assess the effects of the test compound on the development of cold-restraint-induced gastric lesions, the method of D. A. Brodie and L. S. Valitski Proc. Soc. Exp. Biol. Med., 113, 998 (1963) as modified by E. C. Senay and R. J. Levine Proc. Soc. Exp. Biol. Med., 124, 1221 (1967) was used. Food was withheld from male albino rats (165-175 g, Sprague-Dawley, Canadian Breeding Laboratories) for 24 hr but water was freely available. The test compound was administered orally (0.2 ml) to the animals (8-24 per group) 30 min before placing the animals into restrainers, the restrainer was made of plexiglass and restricted the movement of the rat to a minimum. The vehicle employed was as described above. The restrainers were placed in a cold environment (4°-7° C.) for 2 hr. The animals were sacrificed by cervical dislocation, the stomachs removed and the number of ulcers in the glandular portion of the stomach determined.

gastric acid secretion [4] = settings: Lee et al.; cited from earlier work
Gastric Acid Secretion [5] = assay: Basal gastric acid secretion in the Shay (pylorus-ligated) rat; type: in vivo, rat (female Sprague Dawley); settings: for Gastric Acid Output: mean ± S.E.; for ED50: Rattus norvegicus, gastric acid secretion; for basal gastric acid secretion (in words): rat
Experimental: Female Sprague Dawley rats (Canadian Breeding Laboratories; 160-180 g) were fasted for 48 hours before pyloric ligation. After the first 24 hours of fasting the animals were given access to 8% sucrose in 0.2% sodium chloride for 8 hours. Water was permitted ad libitum except during the 8 hour access to sucrose and after the drug treatment. The compounds were suspended in water with the aid of one drop of Tween 80 per 7 ml for oral or intraperitoneal administration. The pylorus was ligated under ether anesthesia and the sutured incision was covered with flexible collodion to prevent the animals from ingesting adhering blood. The stomachs were lavaged with 0.9% sodium chloride until the return solution was clear. Four hours after pyloric ligation, the animals were killed with diethyl ether and the gastric contents were collected in centrifuge tubes. The amount of acid in the centrifuged gastric juice was determined by titration against 0.1 N sodium hydroxide in a direct reading pH meter of pH 7.0.
Student's t test was used in the evaluation of the data. The ED50 's were obtained graphically by plotting the percent inhibition of gastric acid secretion versus the logarithm of the dose of the compound.

[6] = 2 mg/kg i.p., 15 min after oxotremorine
[7] = 2 mg/kg i.p., 30 min after oxotremorine
[8] = 5 mg/kg i.p., 15 min after oxotremorine
[9] = 5 mg/kg i.p., 30 min after oxotremorine
[10] = 25 mg/kg i.p., 15 min after oxotremorine
[11] = 25 mg/kg i.p., 30 min after oxotremorine
[12] = 100 mg/kg i.p., 15 min after oxotremorine
[13] = 100 mg/kg i.p., 30 min after oxotremorine

CN1[C@@H]2CC[C@H]1C[C@@H](OC(=O)C(CO)c1ccccc1)C2 (some centres unmarked) [Atropine, reference compound]
Temperature Before Oxotremorine ([1]; 2 mg/kg i.p.): 37.6 ± 0.2 °C
Temperature after Oxotremorine ([1]; 2 mg/kg i.p., 15 min): 36.7 ± 0.4 °C
Lacrimation (L) score [1, 6]: 0
Salivation (S) score [1, 6]: 0
Tremor (T) score [1, 6]: 0
Temperature after Oxotremorine ([1]; 2 mg/kg i.p., 30 min): 35.7 ± 0.4 °C
Lacrimation (L) score [1, 7]: 0
Salivation (S) score [1, 7]: 0
Tremor (T) score [1, 7]: 0
Temperature Before Oxotremorine ([1]; 5 mg/kg i.p.): 37.2 ± 0.3 °C
Temperature after Oxotremorine ([1]; 5 mg/kg i.p., 15 min): 36.9 ± 0.2 °C
Lacrimation (L) score [1, 8]: 0
Salivation (S) score [1, 8]: 0
Tremor (T) score [1, 8]: 0.16
Temperature after Oxotremorine ([1]; 5 mg/kg i.p., 30 min): 36.9 ± 0.3 °C
Lacrimation (L) score [1, 9]: 0.16
Salivation (S) score [1, 9]: 0
Tremor (T) score [1, 9]: 0
Ulcers Formed (% Inhibition) ([2]; 1 mg/kg p.o.): 47 % Inhibition
Ulcers Formed ([2]; 1 mg/kg p.o.): 5.2 ± 1.5
Ulcers Formed (% Inhibition) ([2]; 2 mg/kg p.o.): 85 % Inhibition
Ulcers Formed ([2]; 2 mg/kg p.o.): 1.5 ± 0.8
ED50 [2]: 1.1 mg/kg

CN(C)CCCN1c2ccccc2CCc2ccccc21 [Imipramine, reference compound]
Ulcers Formed (% Inhibition) ([3]; 1.25 mg/kg p.o.): 37 % Inhibition
Ulcers Formed ([3]; 1.25 mg/kg p.o.): 4.1 ± 1.5
Ulcers Formed (% Inhibition) ([3]; 2.5 mg/kg p.o.): 68 % Inhibition
Ulcers Formed ([3]; 2.5 mg/kg p.o.): 2.1 ± 0.8
Ulcers Formed (% Inhibition) ([3]; 5 mg/kg p.o.): 81 % Inhibition
Ulcers Formed ([3]; 5 mg/kg p.o.): 1.2 ± 0.4
ED50 [3]: 1.7 mg/kg

COc1ccc2c(c1)c(CC(=O)O)c(C)n2C(=O)c1ccc(Cl)cc1 [Indomethacin]
effect on gastric acid secretion (in words) (gastric acid secretion [4]): no effect on gastric acid secretion
ulcer formation (in words) (gastric acid secretion [4]): induces ulcer formation

CC(C)(O)CC1NC(=O)c2ccccc21 (centres unmarked) [Isoindol-1-one, 1,3-dihydro-3-(2-hydroxy-2-methylpropyl)-2H-isoindol-1-one]
Temperature Before Oxotremorine ([1]; 25 mg/kg i.p.): 36.7 ± 0.2 °C
Temperature after Oxotremorine ([1]; 25 mg/kg i.p., 15 min): 31.4 ± 0.2 °C
Lacrimation (L) score [1, 10]: 2.0
Salivation (S) score [1, 10]: 2.0
Tremor (T) score [1, 10]: 2.0
Temperature after Oxotremorine ([1]; 25 mg/kg i.p., 30 min): 29.2 ± 0.2 °C
Lacrimation (L) score [1, 11]: 2.0
Salivation (S) score [1, 11]: 2.0
Tremor (T) score [1, 11]: 2.0
Temperature Before Oxotremorine ([1]; 100 mg/kg i.p.): 32.8 ± 0.2 °C
Temperature after Oxotremorine ([1]; 100 mg/kg i.p., 15 min): 31.2 ± 0.1 °C
Lacrimation (L) score [1, 12]: 0.7
Salivation (S) score [1, 12]: 2.0
Tremor (T) score [1, 12]: 2.0
Temperature after Oxotremorine ([1]; 100 mg/kg i.p., 30 min): 30.5 ± 0.2 °C
Lacrimation (L) score [1, 13]: 1.0
Salivation (S) score [1, 13]: 2.0
Tremor (T) score [1, 13]: 2.0
anticholinergic activity (in words) ([1]; see Example 5): does not exhibit appreciable anticholineric activity
Ulcers Formed (% Inhibition) ([3]; 50 mg/kg p.o.): 40 % Inhibition
Ulcers Formed ([3]; 50 mg/kg p.o.): 3.9 ± 1.2
Ulcers Formed (% Inhibition) ([3]; 100 mg/kg p.o.): 55 % Inhibition
Ulcers Formed ([3]; 100 mg/kg p.o.): 2.9 ± 0.5
Ulcers Formed (% Inhibition) ([3]; 200 mg/kg p.o.): 69 % Inhibition
Ulcers Formed ([3]; 200 mg/kg p.o.): 2.0 ± 0.8
ED50 [3]: 80 mg/kg
cold-restraint-induced ulcer formation (in words) ([3]; rat, orally or parenterally): cold-resistant-induced ulcer formation in the rat
Ulcers Formed (% Inhibition) ([2]; 25 mg/kg p.o.): 50 % Inhibition
Ulcers Formed ([2]; 25 mg/kg p.o.): 4.9 ± 1.2
Ulcers Formed (% Inhibition) ([2]; 50 mg/kg p.o.): 75 % Inhibition
Ulcers Formed ([2]; 50 mg/kg p.o.): 2.4 ± 0.7
Ulcers Formed (% Inhibition) ([2]; 100 mg/kg p.o.): 82 % Inhibition
Ulcers Formed ([2]; 100 mg/kg p.o.): 1.8 ± 0.6
ED50 [2]: 22 mg/kg
indomethacin-induced ulcer formation (in words) ([2]; rat, orally or parenterally): inhibiting indomethacin-induced ulcer formation in the rat
Gastric Acid Output (% Inhibition) (Gastric Acid Secretion [5]; 12 mg/kg i.p.): 18 % Inhibition
Gastric Acid Output (Gastric Acid Secretion [5]; 12 mg/kg i.p.): 448 ± 59 μEg/4 hr
Gastric Acid Output (% Inhibition) (Gastric Acid Secretion [5]; 25 mg/kg i.p.): 49 % Inhibition
Gastric Acid Output (Gastric Acid Secretion [5]; 25 mg/kg i.p.): 275 ± 57 μEg/4 hr
Gastric Acid Output (% Inhibition) (Gastric Acid Secretion [5]; 25 mg/kg p.o.): 48 % Inhibition
Gastric Acid Output (Gastric Acid Secretion [5]; 25 mg/kg p.o.): 226 ± 48 μEq/4 hr
Gastric Acid Output (% Inhibition) (Gastric Acid Secretion [5]; 50 mg/kg i.p.): 90 % Inhibition
Gastric Acid Output (Gastric Acid Secretion [5]; 50 mg/kg i.p.): 56 ± 12 μEg/4 hr
Gastric Acid Output (% Inhibition) (Gastric Acid Secretion [5]; 50 mg/kg p.o.): 65 % Inhibition
Gastric Acid Output (Gastric Acid Secretion [5]; 50 mg/kg p.o.): 154 ± 33 μEq/4 hr
Gastric Acid Output (% Inhibition) (Gastric Acid Secretion [5]; 100 mg/kg p.o.): 84 % Inhibition
Gastric Acid Output (Gastric Acid Secretion [5]; 100 mg/kg p.o.): 71 ± 19 μEq/4 hr
ED50 (Gastric Acid Secretion [5]; ip, intraperitoneal administration): 25 mg/kg
ED50 (Gastric Acid Secretion [5]; oral administration): 28 mg/kg
basal gastric acid secretion (in words) (Gastric Acid Secretion [5]; listed as 1,3-Dihydro-3-(2-hydroxy-2-methylpropyl)-2H-isoindol-1-one): inhibiting basal gastric acid secretion in the rat
basal gastric acid secretion (in words) (Gastric Acid Secretion [5]; listed as 1,3-dihydro-3-(2-hydroxy-2-methylpropyl)-2H-isoindol-1-one): can inhibit gastric acid secretion
